Experimental data as given in US5276139A, “Haptens useful in evaluating inhibition of PNN elastase by N-substituted azetidinones” (Merck & Co., Inc., priority 1991, dated 1994).

Test system: antibody R674
Experiment: Radioimmune assay: displacement of 3H-Compound A' or 3H-Compound B' from antibody R674
Assay type: binding, rabbit
Details: up to 10 μM (the highest concentration tested)
Protocol: Non-antibody-bound radioactive isotope was removed from the reaction mixture by its absorption onto dextran-coated activated charcoal. […] The activated charcoal was then suspended to 3% (w/v) in PBS dextran and allowed to stand overnight, washed once again in PBS dextran and resuspended to 3% (w/v) in PBS dextran and stored at 4° C. Immediately before use in the assay, the dextran-coated activated charcoal was diluted 10-fold in DULBECCO's PBS and 1 ml was added to each assay tube. […] The supernatant fluid was decanted into 9 ml of AQUASOL-2 scintillation fluid and radioactivity counted in a beta-counter. Each assay contains charcoal free controls, to which 1 ml PBS was added, for determination of total counts (BO), and antibody free controls for determination of non-specific binding. Percent specific binding was determined by subtracting the value for non-specific binding from the value of total antiserum binding and then dividing by the total radioactivity added.
The antiserum was diluted in PET/GEL buffer (1:12,000 final dilution in the 200 μl assay volume) as described above so that it binds 20-30% of the total radioactivity added. The same diluted stock was then used for all assay tubes with-in the same assay. […] The assay was set up on a competition basis. The unlabeled reactivation product competed with the tritiated reactivation product for binding to the antibody R674. […]

Row | Compound | effect on binding to antibody R674
1 | NC(N)=O [Urea] | without effect
2 | N=C(N)NCCC[C@H](N)C(=O)O [arginine] | without effect
